The source made the active and inactive calls. The rule behind the calls is not given here.
Key:
[1] = system: L1210; test: Antitumor activity was evaluated in vitro on a L1210 tumor cell line; IA means inactive; format: functional, cell-based; conditions: Mus musculus
[2] = system: L1210; test: Antitumor activity was evaluated in vitro on a L1210 tumor cell line; format: functional, cell-based; conditions: Mus musculus

| IC50 [2] [µM] | Structure (SMILES) | Activity [1] |
| --- | --- | --- |
|  | Cc1c2c(nn1C)C(=O)N1CCC[C@H]1CN2 | inactive |
|  | Cc1nn(C)c2c1NC[C@@H]1CCCN1C2=O | inactive |
|  | CSC1=Nc2c(nn(C)c2C)C(=O)N2CCC[C@@H]12 | inactive |
|  | CSC1=Nc2c(C)nn(C)c2C(=O)N2CCC[C@@H]12 | inactive |
| 8.84 | Cc1c2c(nn1C)C(=O)N1CCC[C@H]1C=N2 |  |
| 22.4 | Cc1nn(C)c2c1N=C[C@@H]1CCCN1C2=O |  |
